# Measurements: patent US9738655B2, “Tetrahydroisoquinolines containing substituted azoles as factor XIa inhibitors” (BRISTOL-MYERS SQUIBB COMPANY, priority 2013, dated 2017)
# Structures can show the parent of a compound that is named as a salt. Where two headings read alike, the source gives them in different places.
# Tests used:
# [1] = target: purified human plasma kallikrein (Homo sapiens (Human), UniProt P03952); test: Plasma kallikrein enzyme inhibition assay (chromogenic substrate S-2302); assay type: biochemical
# purified human plasma kallikrein, sequence (P03952 391-638): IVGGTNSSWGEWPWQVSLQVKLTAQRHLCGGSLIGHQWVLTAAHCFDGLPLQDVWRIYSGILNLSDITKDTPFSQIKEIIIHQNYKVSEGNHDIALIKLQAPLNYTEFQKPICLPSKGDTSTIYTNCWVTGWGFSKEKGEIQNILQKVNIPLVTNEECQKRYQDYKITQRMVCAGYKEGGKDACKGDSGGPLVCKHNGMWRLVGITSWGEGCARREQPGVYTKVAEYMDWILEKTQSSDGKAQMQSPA
# purified human plasma kallikrein, sequence (P03952 20-390 partner): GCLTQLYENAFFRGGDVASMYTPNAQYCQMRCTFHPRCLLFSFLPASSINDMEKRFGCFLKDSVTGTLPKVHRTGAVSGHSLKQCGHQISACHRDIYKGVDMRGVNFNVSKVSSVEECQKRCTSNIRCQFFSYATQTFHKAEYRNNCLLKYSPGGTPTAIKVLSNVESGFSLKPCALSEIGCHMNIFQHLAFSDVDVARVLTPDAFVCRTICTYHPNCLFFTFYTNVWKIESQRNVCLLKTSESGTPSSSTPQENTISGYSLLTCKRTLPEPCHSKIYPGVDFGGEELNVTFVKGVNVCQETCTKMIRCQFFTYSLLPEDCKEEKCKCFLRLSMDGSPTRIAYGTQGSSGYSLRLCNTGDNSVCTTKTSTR
# [2] = target: purified human Factor XIa (Homo sapiens (Human), UniProt P03951); test: Factor XIa enzyme inhibition assay (chromogenic substrate S-2366)
# purified human Factor XIa, sequence (P03951 388-625): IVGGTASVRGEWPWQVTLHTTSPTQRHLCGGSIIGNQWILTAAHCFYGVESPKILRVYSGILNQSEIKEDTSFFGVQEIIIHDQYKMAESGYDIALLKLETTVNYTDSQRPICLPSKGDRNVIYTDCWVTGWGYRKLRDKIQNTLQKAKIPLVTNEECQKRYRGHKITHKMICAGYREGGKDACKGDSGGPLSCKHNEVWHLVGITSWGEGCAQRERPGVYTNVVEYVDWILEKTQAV
# purified human Factor XIa, sequence (P03951 19-387 partner): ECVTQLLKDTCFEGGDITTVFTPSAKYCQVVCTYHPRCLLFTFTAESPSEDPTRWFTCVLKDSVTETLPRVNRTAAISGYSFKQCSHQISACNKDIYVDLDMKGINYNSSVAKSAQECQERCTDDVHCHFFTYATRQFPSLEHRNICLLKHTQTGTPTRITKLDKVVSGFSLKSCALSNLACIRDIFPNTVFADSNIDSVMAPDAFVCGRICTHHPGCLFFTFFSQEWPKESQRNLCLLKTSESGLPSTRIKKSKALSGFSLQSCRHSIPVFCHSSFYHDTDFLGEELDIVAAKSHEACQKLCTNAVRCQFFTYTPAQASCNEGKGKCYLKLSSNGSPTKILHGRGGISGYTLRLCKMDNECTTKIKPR
# Experimental: The effectiveness of compounds of the present invention as inhibitors of the coagulation Factors XIa, VIIa, IXa, Xa, XIIa, plasma kallikrein or thrombin, can be determined using a relevant purified serine protease, respectively, and an appropriate synthetic substrate. The rate of hydrolysis of the chromogenic or fluorogenic substrate by the relevant serine protease was measured both in the absence and presence of compounds of the present invention. […] A decrease in the rate of absorbance or fluorescence change in the presence of inhibitor is indicative of enzyme inhibition. […] The results of this assay are expressed as the inhibitory constant, Ki.
# Values of Ki were determined by allowing the protease to react with the substrate in the presence of the inhibitor.
# [3] = measured at 25° C. (no asterisk)
# [4] = read-out: Factor XIa Ki, measured at 25° C.
# [5] = measured at 25° C. (no asterisk), TFA salt
# [6] = read-out: Factor XIa Ki, measured at 25° C., TFA salt
"Ki [1, 3] [nM]","Ki [2, 4] [nM]",Ki ([1]; measured at 37° C. (*)) [nM],SMILES,further results
,< 5,124,"O=C(O)c1ccc(NC(=O)C2c3cccc(N4CCN(CC(F)(F)F)CC4)c3CCN2C(=O)c2cn(-c3cccc(Cl)c3F)nn2)cc1 (centres unmarked) [Example 229, 4-(2-(1-(3-Chloro-2-fluorophenyl)-1H-1,2,3-triazole-4-carbonyl)-5-(4-(2,2,2-trifluoroethyl)piperazin-1-yl)-1,2,3,4-tetrahydroisoquinoline-1-carboxamido) benzoic acid, TFA salt]",
7.96,< 5,,"O=C1CCC2(CCN(c3cccc4c3CCN(C(=O)c3cn(-c5cccc(Cl)c5F)cn3)C4C(=O)Nc3ccc(C(=O)O)cc3)CC2)O1 (centres unmarked) [Example 77, 4-(2-(1-(3-chloro-2-fluorophenyl)-1H-imidazole-4-carbonyl)-5-(2-oxo-1-oxa-8-azaspiro[4.5]decan-8-yl)-1,2,3,4-tetrahydroisoquinoline-1-carboxamido)benzoic acid, TFA salt]",
99.2,5.28,,"COC1CCN(c2cccc3c2CCN(C(=O)c2cncc(-c4cccc(Cl)c4F)c2)C3C(=O)Nc2ccc(C(=O)O)cc2)CC1 (centres unmarked) [Example 323, 4-(2-(5-(3-Chloro-2-fluorophenyl)nicotinoyl)-5-(4-methoxypiperidin-1-yl)-1,2,3,4-tetrahydroisoquinoline-1-carboxamido)benzoic acid, 2 TFA salt]",
13.1,,,"Cn1nccc1-c1cccc2c1CCN(C(=O)c1cn(-c3cccc(Cl)c3F)nn1)C2C(=O)Nc1ccc(C(=O)O)cc1 (centres unmarked) [Example 42, 4-(2-(1-(3-chloro-2-fluorophenyl)-1H-1,2,3-triazole-4-carbonyl)-5-(1-methyl-1H-pyrazol-5-yl)-1,2,3,4-tetrahydroisoquinoline-1-carboxamido)benzoic acid]",Ki [2]: < 5 nM
,< 5,36.2,"CC1(COc2cccc3c2CCN(C(=O)c2cn(-c4cccc(Cl)c4F)nn2)C3C(=O)Nc2ccc(C(=O)O)cc2)COC1 (centres unmarked) [Example 124, 4-(2-(1-(3-Chloro-2-fluorophenyl)-1H-1,2,3-triazole-4-carbonyl)-5-((3-methyloxetan-3-yl)methoxy)-1,2,3,4-tetrahydroisoquinoline-1-carboxamido)benzoic acid]",
4.15,< 5,,"CO[C@@H]1CCN(c2cccc3c2CCN(C(=O)[C@H]2CC(c4cccc(Cl)c4F)=NO2)[C@@H]3C(=O)Nc2ccc(C(=O)O)cc2)C1 [Example 300, 4-((S)-2-((R)-3-(3-chloro-2-fluorophenyl)-4,5-dihydroisoxazole-5-carbonyl)-5-((R)-3-methoxypyrrolidin-1-yl)-1,2,3,4-tetrahydroisoquinoline-1-carboxamido)benzoic acid, TFA salt]",
156,,,"COC1CCN(c2cccc3c2CCN(C(=O)c2nnn(-c4cccc(Cl)c4F)c2C)C3C(=O)Nc2ccc(C(=O)O)cc2)CC1 (racemic) [Example 253, 4-(2-(1-(3-chloro-2-fluorophenyl)-5-methyl-1H-1,2,3-triazole-4-cabonyl)-5-(4-methoxypiperidin-1-yl)-1,2,3,4-tetrahydroisoquinoline-1-carboxamido)benzoic acid, TFA salt]",Ki [2]: 11.1 nM

# Further lines, the compound ahead of its results:
SMILES,"Ki [1, 3] [nM]","Ki [2, 4] [nM]",Ki ([1]; measured at 37° C. (*)) [nM],further results
"COC1CCN(c2cccc3c2CCN(C(=O)c2cc(-c4cccc(Cl)c4F)ccn2)C3C(=O)Nc2ccc(C(=O)O)cc2)CC1 (centres unmarked) [Example 322, 4-(2-(4-(3-Chloro-2-fluorophenyl)picolinoyl)-5-(4-methoxypiperidin-1-yl)-1,2,3,4-tetrahydroisoquinoline-1-carboxamido)benzoic acid, 2 TFA salt]",138,8.21,,
"COC(=O)c1ccc(NC(=O)[C@@H]2c3cccc(N4CCN(C5COC5)CC4)c3CCN2C(=O)[C@H]2CC(c3cccc(Cl)c3F)=NO2)cc1 [Example 232, Methyl 4-((S)-2-((R)-3-(3-chloro-2-fluorophenyl)-4,5-dihydroisoxazole-5-carbonyl)-5-(4-(oxetan-3-yl)piperazin-1-yl)-1,2,3,4-tetrahydroisoquinoline-1-carboxamido)benzoate, 2 TFA salt]",,4130,29.7,
"COC1CCN(c2cccc3c2CCN(C(=O)C2CC(c4c(C(F)(F)F)ccc(Cl)c4F)=NO2)C3C(=O)Nc2ccc(C(=O)O)cc2)CC1 (centres unmarked) [Example 298, 4-(2-(3-(3-chloro-2-fluoro-6-(trifluoromethyl)phenyl)-4,5-dihydroisoxazole-5-carbonyl)-5-(4-methoxypiperidin-1-yl)-1,2,3,4-tetrahydroisoquinoline-1-carboxamido)benzoic acid, TFA salt]",,,,"Ki [1, 5]: 1010 nM; Ki [2, 6]: 64.8 nM"
"O=C(Nc1ccc(-c2ncc[nH]2)cc1)[C@@H]1c2cccc(-c3cncnc3)c2CCN1C(=O)c1cn(-c2cccc(Cl)c2F)nn1 [Example 138, (S)-N-(4-(1H-Imidazol-2-yl)phenyl)-2-(1-(3-chloro-2-fluorophenyl)-1H-1,2,3-triazole-4-carbonyl)-5-(pyrimidin-5-yl)-1,2,3,4-tetrahydroisoquinoline-1-carboxamide, TFA salt]",,< 5,25.9,
"O=C(NC12CCC(C(=O)O)(CC1)CC2)C1c2cccc(-c3cncnc3)c2CCN1C(=O)c1cn(-c2cccc(Cl)c2F)nn1 (centres unmarked) [Example 143, 4-(2-{[1-(3-Chloro-2-fluorophenyl)-1H-1,2,3-triazol-4-yl]carbonyl}-5-(pyrimidin-5-yl)-1,2,3,4-tetrahydroisoquinoline-1-amido)bicyclo[2.2.2]octane-1-carboxylic acid, 1 TFA]",,5.23,237,
"O=C(Nc1ccc(-c2ncc[nH]2)cc1)C1c2cccc(-c3cncnc3)c2CCN1C(=O)c1cn(-c2cccc(Cl)c2F)cn1 (centres unmarked) [Example 137, N-(4-(1H-Imidazol-2-yl)phenyl)-2-(1-(3-chloro-2-fluorophenyl)-1H-imidazole-4-carbonyl)-5-(pyrimidin-5-yl)-1,2,3,4-tetrahydroisoquinoline-1-carboxamide, 2 TFA]",,< 5,53.4,
"O=C(O)c1ccc(NC(=O)C2c3cccc(-c4ccc5c(c4)OCO5)c3CCN2C(=O)c2cn(-c3cccc(Cl)c3F)nn2)cc1 (centres unmarked) [Example 157, 4-(5-(benzo[d][1,3]dioxol-5-yl)-2-(1-(3-chloro-2-fluorophenyl)-1H-1,2,3-triazole-4-carbonyl)-1,2,3,4-tetrahydroisoquinoline-1-carboxamido)benzoic acid]",29.5,< 5,,
"CCOC(=O)Cc1ccc(NC(=O)C2c3cccc(-c4ccc(C(=O)NC)nc4)c3CCN2C(=O)c2cn(-c3cccc(Cl)c3F)nn2)cc1 (centres unmarked) [Example 116, Ethyl 2-(4-(2-(1-(3-Chloro-2-fluorophenyl)-1H-1,2,3-triazole-4-carbonyl)-5-(6-(methylcarbamoyl)pyridin-3-yl)-1,2,3,4-tetrahydroisoquinoline-1-carboxamido)phenyl)acetate, TFA salt]",128,13.6,,
"CNC(=O)c1ccc(-c2cccc3c2CCN(C(=O)c2cn(-c4cccc(Cl)c4F)nn2)[C@H]3C(=O)Nc2ccc(C(=O)O)cc2)cn1 [Example 45, (R)-4-(2-(1-(3-Chloro-2-fluorophenyl)-1H-1,2,3-triazole-4-carbonyl)-5-(6-(methylcarbamoyl)pyridin-3-yl)-1,2,3,4-tetrahydroisoquinoline-1-carboxamido)benzoic acid, TFA salt]",364,20.6,,
"COC1CCN(c2cccc3c2CCN(C(=O)c2cnn(-c4ccncc4)c2N)C3C(=O)Nc2ccc(C(=O)O)cc2)CC1 (racemic) [Example 313, 4-(2-(5-amino-1-(pyridin-4-yl)-1H-pyrazole-4-carbonyl)-5-(4-methoxypiperidin-1-yl)-1,2,3,4-tetrahydroisoquinoline-1-carboxamido)benzoic acid, TFA salt]",,,> 6000,Ki [2]: 4820 nM
"CNC(=O)c1cncc(-c2cccc3c2CCN(C(=O)c2cn(-c4cccc(Cl)c4F)nn2)C3C(=O)Nc2ccc(C(=O)O)cc2)c1 (centres unmarked) [Example 37, 4-(2-(1-(3-chloro-2-fluorophenyl)-1H-1,2,3-triazole-4-carbonyl)-5-(5-(methylcarbamoyl)pyridin-3-yl)-1,2,3,4-tetrahydroisoquinoline-1-carboxamido)benzoic acid, TFA salt]",12.9,< 5,,
"O=C(Nc1ccc(CO)cc1)C1c2cccc(Br)c2CCN1C(=O)c1cn(-c2cccc(Cl)c2F)nn1 (centres unmarked) [Example 120, 5-Bromo-2-(1-(3-chloro-2-fluorophenyl)-1H-1,2,3-triazole-4-carbonyl)-N-(4-(hydroxymethyl)phenyl)-1,2,3,4-tetrahydroisoquinoline-1-carboxamide]",,3940,517,
"COC1CCN(c2cccc3c2CCN(C(=O)C2CC(c4c(F)ccc(Cl)c4F)=NO2)C3C(=O)Nc2ccc(C(=O)O)cc2)CC1 (centres unmarked) [Example 257, 4-(2-(3-(3-chloro-2,6-difluorophenyl)-4,5-dihydroisoxazole-5-carbonyl)-5-(4-methoxypiperidin-1-yl)-1,2,3,4-tetrahydroisoquinoline-1-carboxamido)benzoic acid, TFA salt]",,,,"Ki [1, 5]: 24 nM; Ki [2, 6]: < 5 nM"
"COC1CCN(c2cccc3c2CCN(C(=O)c2cn(-c4cccc(Cl)c4F)nn2)[C@H]3C(=O)Nc2ccc(CO)cc2)CC1 [Example 121, (R)-2-(1-(3-Chloro-2-fluorophenyl)-1H-1,2,3-triazole-4-carbonyl)-N-(4-(hydroxymethyl)phenyl)-5-(4-methoxypiperidin-1-yl)-1,2,3,4-tetrahydroisoquinoline-1-carboxamide]",,1050,7900,
"CN(C)CCNC(=O)c1ccc(-c2cccc3c2CCN(C(=O)c2cnn(-c4cccc(Cl)c4F)c2)C3C(=O)Nc2ccc(C(=O)O)cc2)cc1 (centres unmarked) [Example 8, 4-(2-(1-(3-Chloro-2-fluorophenyl)-1H-pyrazole-4-carbonyl)-5-(4-((2-(dimethylamino)ethyl)carbamoyl)phenyl)-1,2,3,4-tetrahydroisoquinoline-1-carboxamido)benzoic acid, TFA salt]",3.37,< 5,,
